# In paper PMC10755736, “Modulating Liquid–Liquid Phase Separation of Nck Adaptor Protein against Enteropathogenic Escherichia coli Infection” (ACS Central Science, 2023):
# “Also recorded” adds a separate entry of the source. Non-standard residues stand in square brackets, D forms with d. Residues, ends and D or L forms follow the SMILES beside them. *: point of attachment. Biotin = O=C1N[C@H]2[C@H](CS[C@H]2CCCCC(=O)*)N1; Benzoyl(4-SO2F) = O=C(c1ccc(S(=O)(=O)F)cc1)*; pY = N[C@@H](Cc1ccc(OP(=O)(O)O)cc1)C(=O)O; Dap = NC[C@H](N)C(=O)O
# How the values were obtained:
# Nck-SH2K331A = test: Covalent reaction of p1 with Nck-SH2 K331A mutant; format: binding; conditions: PBS, 37 °C, 1 min or 10 min; SDS-PAGE
# Method: We next identified the residues in Nck-SH2 that are involved in the reaction with p1 by mass spectrometry. […] The Nck–p1 conjugate was digested with trypsin, and peptide fragments were analyzed with an in-line EASY-spray source and nano-LC UltiMate 3000 HPLC system interfaced with an Elite mass spectrometer, operated in the data-dependent acquisition (DDA) mode with one full MS scan at R = 60,000 (m/z = 200) mass followed by HCD MS/MS scans. […] The fragmentation spectral analysis of [EEHIpYXEVAAD(α)] + [HFKVQLK(β)] extracted by pLabel v2.4.3.0 (Figure 5a and Figure S6 in the Supporting Information)[38],[39] confirmed the ligand-directed conjugation of Nck-SH2 protein with p1 peptide. The underlined lysine residue in the β-chain sequence indicated the cross-linked site on the predicted Nck Lys331 residue. Next, we mutated Nck Lys331 to Ala, expressed and purified the Nck-SH2K331A mutant. […]
# The reaction mixture of Nck and p1 were digested with trypsin. Digested peptides were analyzed with an in-line EASY-spray source and nano-LC UltiMate 3000 high-performance liquid chromatography system (Thermo Fisher, USA) interfaced with an Elite mass spectrometer (Thermo Fisher, USA). The eluted peptides were detected by the Elite mass spectrometer, which was operated in data-dependent mode with one full MS scan at R = 60,000 (m/z = 200) mass, followed by MS/MS scans. […]
# Caco-2 cells = test: Cell viability by CCK8 assay; format: cell-based
# Method: (§1) concentrations were added to each well, followed by a 90-min incubation at 37 °C. Diluted streptavidin-HRP solution was then added, followed by substrate solution to develop cover at 450 nm, and recorded by a plate reader. For MST test, a series diluted solutions of the cy5 labeled peptides were incubated with 400 nM Nck for 30 min and loaded into 16 capillaries. And then the samples were scanned and measured at 20% IR Laser power with 30 s laser-on time on a Monolith NT.115 instrument (NanoTemper Technologies). The data were analyzed by KD fitting model (KD) or hill fitting model […]
# A Cell Line Stably Expressing N-WASP
# To establish a stable pool of cells for N-WASP overexpression, Caco-2 cells were infected at 70-80% confluency with the virus diluted in a suitable medium supplemented with 8 µg/ml […]. After 48 h of incubation, infected cells were treated with puromycin for 7-14 days. The selection medium was changed every 2 days. Under the same treatment conditions, uninfected parental cells were used as selection controls. […]
# Plasmid extraction was done using a plasmid DNA Maxi kit (Omega Bio-Tek, GA, USA). […] 48 h after transfection, cells were analyzed by fluorescent micrscopes. Cell viability was measured by a CCK8 assay (Thermo Fisher Scientific) according to its manual. […]
# Figure S10. […] The viability was measured at 450 nm absorbance.
# [1] = tested on: Nck puncta in Caco-2 cells; test: Nck puncta number in Caco-2 cells overexpressing dsRed-Nck; format: cell-based; conditions: L17E 40 μM, p1 1 μM, N = 20 cells
# Source text: Figure 6 Peptide p1 inhibits the formation of the Nck/N-WASP condensate in mammalian cells. (a) Schematic illustration showing inhibition of intracellular Nck coacervation by p1. (b) Confocal microscopic images showing the formation of Nck/N-WASP puncta in HeLa cells that overexpress GFP-N-WASP and dsRed-Nck. Scale bar: 10 μm. (c) FRAP analysis showing the Nck/N-WASP condensates in HeLa cells have fluidity properties based on the recovery of the GFP fluorescent signal after photobleaching in a two-photon microscope with excitation at 920 nm. Scale bar: 5 μm. […] L17E, 40 μM; p1, 1 μM. Statistical analyses of puncta number per cell in the control and experiment (L17E/p1). N = 20 cells. […]
# as §1, with “For MST test, a series diluted solutions of the cy5 labeled peptides were incubated with 400 nM Nck for 30 min and loaded into 16 capillaries.” left out
# Plasmid extraction was done using a plasmid DNA Maxi kit (Omega Bio-Tek, GA, USA). […] 48 h after transfection, cells were analyzed by fluorescent micrscopes. Cell viability was measured by a CCK8 assay (Thermo Fisher Scientific) according to its manual.
smiles,measurement,setting,value
CC[C@H](C)[C@H](NC(=O)[C@H](Cc1c[nH]cn1)NC(=O)[C@H](CCC(=O)O)NC(=O)[C@H](CCC(=O)O)NC(=O)CCCC[C@@H]1SC[C@@H]2NC(=O)N[C@@H]21)C(=O)N[C@@H](Cc1ccc(OP(=O)(O)O)cc1)C(=O)N[C@@H](CNC(=O)c1ccc(S(=O)(=O)F)cc1)C(=O)N[C@@H](CCC(=O)O)C(=O)N[C@H](C(=O)N[C@@H](C)C(=O)N[C@@H](C)C(=O)N[C@@H](CC(=O)O)C(N)=O)C(C)C [p1] (Biotin-EEHI[pY][Dap](Benzoyl(4-SO2F))EVAAD-NH2; N-terminus and C-terminus assumed),reactivity with Nck-SH2 K331A,Nck-SH2K331A,did not show noticeable reactivity; also recorded: abolished the covalent reaction
same,cytotoxicity,"Caco-2 cells; CCK8, p1 0.3125-10 μM with L17E 40 μM for 3 h, 48 h incubation",did not cause noticeable cytotoxicity
same,cell physiology or toxicity changes from side reactions of sulfonyl fluoride,Caco-2 cells; inside cells,did not cause noticeable changes in the cell physiology or toxicity
same,number of Nck puncta,[1],reduced the number of Nck puncta
same,decline in Nck puncta numbers,[1]; 2 h,50%
